“And” between values parts separate entries of the source, which are not always exact repeats. Identical values can stand only once. “Also recorded” adds a separate entry of the source. Like-named read-outs stand apart in the source and are kept apart here. Each block holds one molecule with its values, some of them ahead of it.
Legend:
tPA = tPA (Homo sapiens, UniProt P00750); assay: tPA inhibition assay with chromogenic tPA substrate S-2288, Dixon plot analysis; format: biochemical; conditions: role: inhibitor; for Ki / tPA inhibition relative to another inhibitor: tPA 75 nM, S-2288 100-500 μM; for Ki: PBS pH 7.4, read-out: Inhibition constant (Ki); for tPA inhibition compared to plasmin: tPA vs plasmin
Sequence of tPA (P00750 36-562, species assumed): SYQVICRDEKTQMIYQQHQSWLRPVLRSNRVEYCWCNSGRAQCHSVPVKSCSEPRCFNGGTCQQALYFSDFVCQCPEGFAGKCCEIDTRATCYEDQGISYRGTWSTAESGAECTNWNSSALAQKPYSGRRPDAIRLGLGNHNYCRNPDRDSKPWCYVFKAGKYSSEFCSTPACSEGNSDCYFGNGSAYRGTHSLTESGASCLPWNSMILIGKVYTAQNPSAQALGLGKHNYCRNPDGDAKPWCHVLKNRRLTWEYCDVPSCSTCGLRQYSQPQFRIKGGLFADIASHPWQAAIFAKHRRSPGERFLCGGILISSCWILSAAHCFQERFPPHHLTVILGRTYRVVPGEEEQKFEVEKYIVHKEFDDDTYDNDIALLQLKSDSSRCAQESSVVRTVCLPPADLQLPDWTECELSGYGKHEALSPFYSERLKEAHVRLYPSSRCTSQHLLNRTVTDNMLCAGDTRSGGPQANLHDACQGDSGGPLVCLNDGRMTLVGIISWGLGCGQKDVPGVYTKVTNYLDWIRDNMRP
Protocol: Inhibition assays were performed using a fixed tPA concentration of 75 nM in PBS pH 7.4 over a range of Chromogenic tPA Substrate (S-2288) concentrations of 100-500 μM.

Human plasmin = molecular target: T1, Human plasmin (Homo sapiens, UniProt P00747); assay: Plasmin inhibition assay with chromogenic substrate S-2251, Dixon plot / Cornish-Bowden analysis; format: biochemical; conditions: role: inhibitor; for mode of inhibition (Cornish-Bowden plot): S-2251; for rp: relative potency = Ki^AMB/Ki^multi: benzamidine inhibitors relative to AMB; for rp/n: relative potency/number of benzamidine units: relative to AMB per benzamidine unit; for rp1: relative potency = Ki^AMB/Ki^multi: hetero-bivalent inhibitors relative to AMB; for rp2: relative potency = Ki^TXA or EACA/Ki^multi: hetero-bivalent inhibitors relative to TXA or EACA
T1 construct: a heavy chain (~60 kDa) comprising 5 kringle domains
T1 sequence (P00747 581-810 limits assumed): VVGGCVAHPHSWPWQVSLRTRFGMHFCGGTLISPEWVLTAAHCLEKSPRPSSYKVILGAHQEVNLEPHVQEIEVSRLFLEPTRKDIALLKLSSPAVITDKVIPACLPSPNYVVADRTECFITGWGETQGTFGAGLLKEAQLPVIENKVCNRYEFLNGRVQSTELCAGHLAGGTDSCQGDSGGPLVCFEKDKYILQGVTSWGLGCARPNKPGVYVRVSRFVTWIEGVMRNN
T1 sequence (P00747 97-580 limits assumed): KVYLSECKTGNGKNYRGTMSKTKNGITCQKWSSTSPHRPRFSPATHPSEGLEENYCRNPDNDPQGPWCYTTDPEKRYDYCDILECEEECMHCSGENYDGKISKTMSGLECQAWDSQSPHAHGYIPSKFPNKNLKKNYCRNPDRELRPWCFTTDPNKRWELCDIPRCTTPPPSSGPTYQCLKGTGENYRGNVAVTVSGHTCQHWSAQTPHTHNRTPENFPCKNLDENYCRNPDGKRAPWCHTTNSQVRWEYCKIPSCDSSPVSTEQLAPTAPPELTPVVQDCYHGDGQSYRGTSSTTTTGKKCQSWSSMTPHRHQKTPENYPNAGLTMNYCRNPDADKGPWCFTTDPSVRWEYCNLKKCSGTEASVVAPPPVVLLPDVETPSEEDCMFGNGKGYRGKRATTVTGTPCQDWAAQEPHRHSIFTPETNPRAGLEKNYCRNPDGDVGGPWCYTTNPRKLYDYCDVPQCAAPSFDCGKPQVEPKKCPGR
Protocol: Inhibition assays were performed on all synthesized multivalent affinity molecules in addition to free AMB and Pentamidine. […] Ki values were calculated for all multivalent affinity molecules via Dixon Plot analysis using the negative x-intersection point. […] A smaller Ki value indicates a higher degree of inhibition. Cornish-Bowden graphs (S/Vo vs I) were also plotted to verify the type of inhibition, i.e., competitive, uncompetitive, non-competitive, or mixed.
Parameters used to quantify multivalency, namely, relative potency (rp), and relative potency per unit (rp/n) were also computed. To evaluate the strength of the multivalent affinity molecules as compared to the monovalent affinity molecules, rp was used and is a ratio of Ki^mono to Ki^multi Ki of monovalent AMB was used for this calculation since AMB was utilized for synthesis of the multivalent affinity molecules. […] To better evaluate multivalency effects, rp/n was also computed to determine the benefit of linking multiple affinity moieties together.
Human plasmin (42.5 nM) over a range of inhibitor concentrations (0-2 mM) and chromogenic substrate concentrations (Chromogenix S-2251 100-500 μM) were utilized for Inhibition assays.
Human plasmin (42.5 nM) over a range of inhibitor concentrations (0-500 μM) and chromogenic substrate concentrations (Chromogenix S-2251 100-500 μM) were utilized for Inhibition assays.
In this example, homo-multivalent and hetero multivalent micelles were synthesized to determine their plasmin inhibition. […] After weighing and mixing the appropriate lipids amounts in chloroform, a lipid film was made by slowly evaporating chloroform while rotating the vial gently under air. The dried lipid film was placed in a desiccator under vacuum overnight. The lipid film was rehydrated using 2 mL PBS and was sonicated for 2 mins while heating at 60° C. to obtain more rapid and less polydisperse micelle formation by self-assembly. […] Human plasmin (42.5 nM) over a range of inhibitor concentrations (0-500 μM) and chromogenic substrate concentrations (Chromogenix S-2251 100-500 μM) were utilized for Inhibition assays.

thrombin = thrombin (Homo sapiens, UniProt P00734); assay: Thrombin inhibition assay with fluorogenic Thrombin Substrate III, Dixon plot analysis; format: biochemical; conditions: role: inhibitor; for Ki: PBS pH 7.4, 10% DMSO, read-out: Inhibition constant (Ki); for thrombin inhibition compared to plasmin: thrombin vs plasmin
Protocol: In this example, commercially available inhibitors shown in Table 1, Tri-AMB and all hetero-multivalent inhibitors were tested for their thrombin inhibition. Inhibition assays were performed using a fixed thrombin concentration of 0.25 U/mL in PBS pH 7.4 over a range of Thrombin Substrate III (fluorogenic) concentrations of 20-50 μM at 10% DMSO.

[1] = molecular target: LBS sites on other kringle domains of plasmin; conditions: role: inhibitor; cited from earlier work
[2] = treatment delayed beyond 3 hours; cited from earlier work
[3] = test system: light chain and kringle 5 of plasmin; conditions: cited from earlier work
plasmin = conditions: role: inhibitor; Alves et al.; cited from earlier work
[4] = hetero-bivalent inhibitors, human plasmin 42.5 nM, S-2251 100-500 μM, read-out: Inhibition constant (Ki)
[5] = substrate S-2251 100-500 μM, plasmin 42.5 nM, PBS pH 7.4, benzamidine inhibitors, Dixon plot, read-out: Inhibition constant (Ki)
[6] = thrombin 0.25 U/mL, Thrombin Substrate III 20-50 μM

SMILES: N=C(N)c1ccc(CN)cc1 [AMB, 4-aminomethyl benzamidine, reference compound]
- Ki (tPA): 5210 ± 161 µM
- Ki (Human plasmin; [4]): 1.4 ± 0.166 mM
- mode of inhibition (Cornish-Bowden plot) (Human plasmin; plasmin 42.5 nM, PBS pH 7.4): competitive inhibitor
- Ki (Human plasmin; [5]): 1.4 mM
- Ki (thrombin; [6]): 344 ± 33 µM

SMILES: N=C(N)c1ccc(C(=O)O)cc1 [4-carboxy benzamidine, 4-Carboxybenzamidine, reference compound]
- Ki (thrombin; [6]): 151 ± 4 µM

SMILES: NC[C@H]1CC[C@H](C(=O)O)CC1 [TXA, Tranexamic acid]
- Ki [1]: 0.75 µM
- clinical trial outcome of delayed treatment [2]: ineffective or harmful

SMILES: N=C(N)c1ccc(N)cc1 [4-amino benzamidine, 4-Aminobenzamidine, reference compound]
- Ki (tPA): 148 ± 0.9 µM

SMILES: N=C(N)c1ccccc1 [Benzamidine]
- subsite binding [3]: weak subsite binding

SMILES: N=C(N)c1ccc(OCCCCCOc2ccc(C(=N)N)cc2)cc1 [Pentamidine, reference compound]
- fold stronger plasmin inhibitor than the strongest monovalent benzamidine (plasmin): 15 fold
- tPA inhibition relative to another inhibitor (tPA): stronger inhibitor than Tri-AMB
- Ki (tPA): 48 ± 12 µM
- tPA inhibition compared to plasmin (tPA): weaker tPA inhibitors compared to plasmin
- mode of inhibition (Cornish-Bowden plot) (Human plasmin; plasmin 42.5 nM, PBS pH 7.4): competitive inhibitor
- rp: relative potency = Ki^AMB/Ki^multi (Human plasmin; plasmin, S-2251 100-500 μM): 664.3
- rp/n: relative potency/number of benzamidine units (Human plasmin; plasmin, S-2251 100-500 μM): 332.1
- Ki (Human plasmin; [5]): 0.0021 mM and 0.0026 mM
- thrombin inhibition relative to another inhibitor (thrombin; [6]): slightly stronger thrombin inhibitor than Tri-AMB
- Ki (thrombin; [6]): 4.5 ± 2.3 µM
- thrombin inhibition compared to plasmin (thrombin): slightly weaker thrombin inhibitors compared to plasmin

SMILES: NC[C@H]1CC[C@H](C(=O)NCCCC[C@H](NC(=O)[C@H]2CC[C@H](CN)CC2)C(N)=O)CC1 [Bis-TXA]
- Ki (Human plasmin; TXA affinity molecules, human plasmin 42.5 nM, S-2251 100-500 μM, read-out: Inhibition constant (Ki)): 6.4 ± 2.03 mM
- Ki (Human plasmin; human plasmin 42.5 nM, S-2251 100-500 μM, text value in mM, read-out: Ki (active site inhibition of plasmin)): 6.4 mM
- rp: relative potency = Ki^TXA/Ki^multi (Human plasmin; plasmin, TXA affinity molecules relative to TXA, S-2251 100-500 μM): 3.3
- rp/n: relative potency/number of TXA units (Human plasmin; plasmin, relative to TXA per TXA unit, S-2251 100-500 μM): 1.7

Second part, led by results:

- mode of inhibition (Cornish-Bowden plot) (Human plasmin; plasmin 42.5 nM, PBS pH 7.4): competitive inhibitor
- rp: relative potency = Ki^AMB/Ki^multi (Human plasmin; plasmin, S-2251 100-500 μM): 27.6
- rp/n: relative potency/number of benzamidine units (Human plasmin; plasmin, S-2251 100-500 μM): 9.2
- Ki (Human plasmin; [5]): 0.0505 ± 0.014 mM
SMILES: N=C(N)c1ccc(CNC(=O)CCOCCOCCOCCOCCNC(=O)CN(CC(=O)NCCOCCOCCOCCOCCC(=O)NCc2ccc(C(=N)N)cc2)CC(=O)NCCOCCOCCOCCOCCC(=O)NCc2ccc(C(=N)N)cc2)cc1 [Tri-dPEG4-AMB]

- Ki (thrombin; [6]): > 10000 µM
SMILES: NCCCCCC(=O)O [EACA, ε-Aminocaproic Acid, reference compound]

- mode of inhibition (Cornish-Bowden plot) (Human plasmin; plasmin 42.5 nM, PBS pH 7.4): competitive inhibitor
- rp: relative potency = Ki^AMB/Ki^multi (Human plasmin; plasmin, S-2251 100-500 μM): 2.7
- rp/n: relative potency/number of benzamidine units (Human plasmin; plasmin, S-2251 100-500 μM): 2.7
- Ki (Human plasmin; [5]): 0.521 ± 0.0849 mM
SMILES: COCCOCCOCCOCCOCCOCCOCCOCCOCCOCCOCCOCCOCCOCCOCCOCCOCCOCCOCCOCCOCCOCCOCCOCCC(=O)NCc1ccc(C(=N)N)cc1 [m-dPEG24-AMB]

- tPA inhibition relative to another inhibitor (tPA): stronger tPA inhibitor than TXA-PEG4-AMB
- Ki (tPA): 128 ± 11 µM
- Ki (Human plasmin; [4]): 0.207 mM
- rp1: relative potency = Ki^AMB/Ki^multi (Human plasmin; plasmin, S-2251 100-500 μM): 7
- rp2: relative potency = Ki^TXA or EACA/Ki^multi (Human plasmin; plasmin, S-2251 100-500 μM): 103
- Ki (thrombin; [6]): 46 ± 1.5 µM
SMILES: N=C(N)c1ccc(CNC(=O)CCOCCOCCOCCOCCOCCOCCOCCOCCOCCOCCOCCOCCNC(=O)[C@H]2CC[C@H](CN)CC2)cc1 [TXA-dPEG12-AMB]

- Ki (Human plasmin; [4]): 0.233 ± 0.005 mM
- rp1: relative potency = Ki^AMB/Ki^multi (Human plasmin; plasmin, S-2251 100-500 μM): 6
- rp2: relative potency = Ki^TXA or EACA/Ki^multi (Human plasmin; plasmin, S-2251 100-500 μM): 305
- Ki (thrombin; [6]): 5.6 ± 0.2 µM
SMILES: N=C(N)c1ccc(CNC(=O)CCOCCOCCOCCOCCNC(=O)CCCCCN)cc1 [EACA-dPEG4-AMB]

- rp: relative potency = Ki^AMB/Ki^multi (Human plasmin; plasmin, S-2251 100-500 μM): 25.2
- rp/n: relative potency/number of benzamidine units (Human plasmin; plasmin, S-2251 100-500 μM): 12.6
SMILES: N=C(N)c1ccc(CNC(=O)CCOCCOCCC(=O)NCc2ccc(C(=N)N)cc2)cc1 [Bis-dPEG2-AMB]
- mode of inhibition (Cornish-Bowden plot) (Human plasmin; plasmin 42.5 nM, PBS pH 7.4): competitive inhibition; also recorded: competitive inhibitor

- mode of inhibition (Cornish-Bowden plot) (Human plasmin; plasmin 42.5 nM, PBS pH 7.4): competitive inhibitor
- rp: relative potency = Ki^AMB/Ki^multi (Human plasmin; plasmin, S-2251 100-500 μM): 3.9
- rp/n: relative potency/number of benzamidine units (Human plasmin; plasmin, S-2251 100-500 μM): 3.9
- Ki (Human plasmin; [5]): 0.36 ± 0.0352 mM
SMILES: COCCOCCOCCOCCOCCOCCOCCOCCOCCOCCOCCOCCC(=O)NCc1ccc(C(=N)N)cc1 [m-dPEG12-AMB]

- Ki (tPA): 230 ± 30 µM
- Ki (Human plasmin; [4]): 0.042 ± 0.0124 mM
- rp1: relative potency = Ki^AMB/Ki^multi (Human plasmin; plasmin, S-2251 100-500 μM): 33
- rp2: relative potency = Ki^TXA or EACA/Ki^multi (Human plasmin; plasmin, S-2251 100-500 μM): 509
- fold stronger than m-dPEG4-AMB (plasmin inhibition) (Human plasmin; plasmin, relative to m-dPEG4-AMB, S-2251 100-500 μM): over 7 fold
- Ki (thrombin; [6]): 14.5 ± 6.7 µM
SMILES: N=C(N)c1ccc(CNC(=O)CCOCCOCCOCCOCCNC(=O)[C@H]2CC[C@H](CN)CC2)cc1 [TXA-dPEG4-AMB]

- Ki (tPA): 112 ± 21 µM
- Ki (thrombin; [6]): 10.6 ± 2 µM
SMILES: N=C(N)c1ccc(CNC(=O)CN(CC(=O)NCc2ccc(C(=N)N)cc2)CC(=O)NCc2ccc(C(=N)N)cc2)cc1 [Tri-AMB]
- tPA inhibition compared to plasmin (tPA): weaker tPA inhibitors compared to plasmin
- thrombin inhibition compared to plasmin (thrombin): slightly weaker thrombin inhibitors compared to plasmin

- Ki (Human plasmin; [4]): 0.099 ± 0.0009 mM
- rp1: relative potency = Ki^AMB/Ki^multi (Human plasmin; plasmin, S-2251 100-500 μM): 14
- rp2: relative potency = Ki^TXA or EACA/Ki^multi (Human plasmin; plasmin, S-2251 100-500 μM): 216
SMILES: N=C(N)c1ccc(CNC(=O)CCOCCOCCOCCOCCOCCOCCOCCOCCNC(=O)[C@H]2CC[C@H](CN)CC2)cc1 [TXA-dPEG8-AMB]

- Ki (Human plasmin; [4]): 0.075 mM and 0.0754 mM
- rp1: relative potency = Ki^AMB/Ki^multi (Human plasmin; plasmin, S-2251 100-500 μM): 19
- rp2: relative potency = Ki^TXA or EACA/Ki^multi (Human plasmin; plasmin, S-2251 100-500 μM): 285
- Ki (thrombin; [6]): 78 ± 1.5 µM
SMILES: N=C(N)c1ccc(CNC(=O)CCOCCOCCOCCOCCOCCOCCOCCOCCOCCOCCOCCOCCOCCOCCOCCOCCOCCOCCOCCOCCOCCOCCOCCOCCOCCOCCOCCOCCOCCOCCOCCOCCOCCOCCOCCOCCNC(=O)[C@H]2CC[C@H](CN)CC2)cc1 [TXA-dPEG36-AMB]

From US20260345795A1, “MULTIVALENCY FOR ENZYME INHIBITION” (Indiana University Research and Technology Corporation, priority 2022, published 2026)
